Laboratory results from patent publication US20230009608A1, “GRK2 INHIBITORS AND USES THEREOF” (Cygnal Therapeutics, Inc., priority 2020, published 2023).

What was measured:
[1] = target: T1, GRK2 (Homo sapiens, UniProt P25098); assay: GRK2 Inhibition Assay (TR-FRET, Example 7); type: biochemical
T1 construct: purchased SignalChem A14-10G
T1 sequence (P25098 1-689): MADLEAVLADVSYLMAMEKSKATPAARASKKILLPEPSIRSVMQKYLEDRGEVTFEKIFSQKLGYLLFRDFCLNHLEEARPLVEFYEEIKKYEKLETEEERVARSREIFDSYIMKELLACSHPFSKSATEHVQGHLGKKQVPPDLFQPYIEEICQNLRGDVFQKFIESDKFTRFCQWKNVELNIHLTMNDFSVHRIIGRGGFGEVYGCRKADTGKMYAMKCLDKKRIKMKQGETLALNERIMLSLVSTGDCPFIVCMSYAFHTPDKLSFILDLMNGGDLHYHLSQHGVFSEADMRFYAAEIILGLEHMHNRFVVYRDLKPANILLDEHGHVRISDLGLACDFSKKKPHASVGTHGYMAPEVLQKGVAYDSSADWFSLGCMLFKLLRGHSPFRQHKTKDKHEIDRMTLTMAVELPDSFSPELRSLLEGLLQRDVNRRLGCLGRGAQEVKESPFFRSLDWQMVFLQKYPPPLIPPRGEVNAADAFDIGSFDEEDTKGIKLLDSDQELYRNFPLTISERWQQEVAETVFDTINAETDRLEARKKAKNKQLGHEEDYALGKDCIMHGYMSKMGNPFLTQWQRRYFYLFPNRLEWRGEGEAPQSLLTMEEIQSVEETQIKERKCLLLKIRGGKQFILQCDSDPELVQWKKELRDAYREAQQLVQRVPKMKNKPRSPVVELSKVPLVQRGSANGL
Method: Enzyme GRK2 (1 nM final concentration) was diluted in 25 mMv HEPES, 10 mM MgCl2, 2 mM DTT, 0.01% Tween-20, and 1 mM EGTA. Then the GRK2 mixture was added into ProxiPlate-384 white plate and pre-incubated for 30 min with test compounds at room temperature. ATP (7 μM final concentration) and Ulight TopoIIα (50 nM final concentration) were added into the assay plate to initiate the reaction and the mixture was incubated at room temperature for 90 min. Then, Eu anti-TopoIIα (0.12 nM final concentration), BSA (0.01% final concentration), and EDTA (11 mMv final concentration) in LANCE assay buffer were added into each well. After 60 min incubation time at room temperature, TR-FRET signal was measured by EnVision plate reader.

[2] = system: PAXF1657 control empty vector cell line; assay: 7-day proliferation assay, PAXF1657 control empty vector cell line (Example 9); type: cell-based; settings: 168 h; Cell Line: PAXF1657 empty vector (EV) cell line; 7-day; read-out: C: 7-day proliferation assay: IC50 GeoMean
Outline: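 500 cells/well, RPMI1640 + 10% H.I. FBS, adhered overnight at 37° C. Compound 10-pt dilution, 30 μM-0.0002 μM final, 0.3% DMSO. 3 d, media + compound replaced, further 4 d. Viability by CellTiter-Glo; untreated plates read at time of dosing.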

[3] = target: T1, GRK2; assay: ADPGlo GRK2 Inhibition Assay (Example 8); type: biochemical
Outline: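 GRK2 (15 nM 2× enzyme solution) was preincubated 15 min with compound, then reacted 180 min at room temperature with 2× mix of 20 μM ATP plus GRKtide in HEPES pH 7.5, MgCl2, Tween-20, DTT. ADP was detected by ADP-Glo luminescence. Percent inhibition was normalised to enzyme and no-enzyme controls, with dose-response curves from threefold dilutions starting at 100 μM.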

[4] = Enzyme Assay B, TR-FRET (Example 7), read-out: B: Enzymatic GRK2: IC50 (nM) (Example 7)
[5] = Enzyme Assay A, ADPGlo (Example 8), read-out: A: Enzymatic GRK2: IC50 (nM) (Example 8)
[6] = TR-FRET GRK2 enzyme assay, read-out: B: Enzymatic GRK2: IC50 (nM) (Example 7)

Cn1c(CNc2cccc(C(=O)NCc3cc[nH]n3)c2)nnc1-c1ccncn1
IC50 [1, 4]: 39 nM
IC50 [2]: > 10000 nM

CCCn1c(CNc2cccc(C(=O)NCc3ccccc3C(F)(F)F)n2)nnc1-c1ccncn1
IC50 [1, 4]: 200 nM
IC50 [2]: > 10000 nM

COc1ncccc1CNC(=O)c1cccc(NCc2nnc(-c3ccncc3)n2CCO)c1
IC50 [1, 4]: 20 nM
IC50 [2]: 256 nM

O=C(NCc1c(F)cccc1F)c1ccnc(NCc2nnc(-c3ccncc3)[nH]2)c1
IC50 [1, 4]: 34 nM
IC50 [2]: > 30000 nM

CCc1cnccc1CNC(=O)c1cccc(NCc2nnc(-c3ccncc3Cl)n2C)c1
IC50 [1, 4]: 79 nM
IC50 [2]: > 30000 nM

CCc1cnccc1CNC(=O)c1cccc(NCc2nnc(-c3ccncc3F)n2C)c1
IC50 [1, 4]: 41 nM
IC50 [2]: 1480 nM

O=C(NCc1cccc2c1OCC2)c1cccc(NCc2nnc(-c3ccncn3)n2CCCO)c1
IC50 [1, 4]: 4.2 nM
IC50 [2]: 14500 nM

O=C(NCc1cccnc1C(F)(F)F)c1cccc(NCc2nnc(-c3ccncn3)n2CCCO)c1
IC50 [1, 4]: 5.8 nM
IC50 [2]: > 30000 nM

CCc1cnccc1CNC(=O)c1cccc(NCc2nnc(-c3ccncn3)n2CCCNC)c1
IC50 [1, 4]: 94 nM
IC50 [2]: > 30000 nM

Cn1c(CNc2cc(C(=O)NCc3cnc4ccccn34)ccn2)nnc1-c1ccncn1
IC50 [1, 4]: 7.9 nM
IC50 [2]: 2750 nM

Cc1cccc2ncc(CNC(=O)c3ccnc(NCc4nnc(-c5ccncn5)n4C)c3)n12
IC50 [1, 4]: 24 nM
IC50 [2]: > 30000 nM

Cn1c(CNc2cc(C(=O)NCc3cccnc3C(F)(F)F)ccn2)nnc1-c1ccncn1
IC50 [1, 4]: 11 nM
IC50 [2]: > 30000 nM

Cc1cccc([C@H](CO)NC(=O)c2ccnc(NCc3nnc(-c4ccncn4)n3C)c2)c1
IC50 [1, 4]: 16 nM
IC50 [2]: > 30000 nM

Cc1cccc([C@@H](CO)NC(=O)c2ccnc(NCc3nnc(-c4ccncn4)n3C)c2)c1
IC50 [1, 4]: 96 nM
IC50 [2]: > 30000 nM

Cn1c(CNc2cc(C(=O)N[C@@H]3COc4ccccc43)ccn2)nnc1-c1ccncn1
IC50 [1, 4]: 26 nM
IC50 [2]: 1800 nM

Cn1c(CNc2cc(C(=O)N[C@H]3CCOc4c(Cl)cccc43)ccn2)nnc1-c1ccncn1
IC50 [1, 4]: 63 nM
IC50 [2]: > 30000 nM

Cn1c(CNc2cc(C(=O)N[C@@H]3CCOc4c(Cl)cccc43)ccn2)nnc1-c1ccncn1
IC50 [1, 4]: 20 nM
IC50 [2]: 2070 nM

C[C@@H](NC(=O)c1ccnc(NCc2nnc(-c3ccncn3)n2C)c1)c1ncccc1Cl
IC50 [1, 4]: 55 nM
IC50 [2]: > 30000 nM

C[C@H](NC(=O)c1ccnc(NCc2nnc(-c3ccncn3)n2C)c1)c1ncccc1Cl
IC50 [1, 4]: 65 nM
IC50 [2]: > 30000 nM

CCc1cnccc1CNC(=O)c1cccc(NCc2nnc(-c3ccncn3)n2CCCOC)c1
IC50 [1, 4]: 23 nM
IC50 [2]: > 30000 nM

O=C(NCc1cccc2c1OCC2)c1cccc(NCc2nnc(-c3ccncn3)n2CCO)c1
IC50 [1, 4]: 1.7 nM
IC50 [2]: > 30000 nM

Cc1cccnc1CNC(=O)c1cccc(NCc2nnc(-c3ccncn3)n2CCO)c1
IC50 [1, 4]: 2.5 nM
IC50 [2]: 1160 nM

O=C(NCc1ccncc1Cl)c1cccc(NCc2nnc(-c3ccncn3)n2CCO)c1
IC50 [1, 4]: < 2.9 nM
IC50 [2]: > 2970 nM

O=C(NCc1cnc2ccccn12)c1cccc(NCc2nnc(-c3ccncn3)n2CCO)c1
IC50 [1, 4]: < 0.51 nM
IC50 [2]: 580 nM

Cc1cccc2ncc(CNC(=O)c3cccc(NCc4nnc(-c5ccncn5)n4CCO)c3)n12
IC50 [1, 4]: 1 nM
IC50 [2]: 3080 nM

O=C(NCc1cccnc1C(F)(F)F)c1cccc(NCc2nnc(-c3ccncn3)n2CCO)c1
IC50 [1, 4]: 0.98 nM
IC50 [2]: > 30000 nM

Cc1cc2c(cc1CNC(=O)c1cccc(NCc3nnc(-c4ccncn4)n3CCO)c1)OCCO2
IC50 [1, 4]: 1.4 nM
IC50 [2]: > 30000 nM

O=C(N[C@@H]1CCOc2c(Cl)cccc21)c1cccc(NCc2nnc(-c3ccncn3)n2CCO)c1
IC50 [1, 4]: 4.6 nM
IC50 [2]: 123 nM

O=C(N[C@H]1CCOc2c(Cl)cccc21)c1cccc(NCc2nnc(-c3ccncn3)n2CCO)c1
IC50 [1, 4]: 1.5 nM
IC50 [2]: 163 nM

Cc1cccc([C@@H](CO)NC(=O)c2cccc(NCc3nnc(-c4ccncn4)n3CCO)c2)c1
IC50 [1, 4]: 1.1 nM
IC50 [2]: 1510 nM

O=C(N[C@H]1COc2ccccc21)c1cccc(NCc2nnc(-c3ccncn3)n2CCO)c1
IC50 [1, 4]: < 0.51 nM
IC50 [2]: 107 nM

C[C@@H](NC(=O)c1cccc(NCc2nnc(-c3ccncn3)n2CCO)c1)c1ncccc1Cl
IC50 [1, 4]: < 0.51 nM
IC50 [2]: 803 nM

COCCCn1c(CNc2cccc(C(=O)NCc3cccnc3C(F)(F)F)c2)nnc1-c1ccncn1
IC50 [1, 4]: 15 nM
IC50 [2]: 1200 nM

COCCOc1cccc(CNC(=O)c2cccc(NCc3nnc(-c4ccncn4)n3C)c2)c1
IC50 [1, 4]: 39 nM
IC50 [2]: 779 nM

C#Cc1cccc(OS(=O)(=O)F)c1CNC(=O)c1cccc(NCc2nnc(-c3ccncc3)[nH]2)c1
IC50 [1]: 4.2 nM
IC50 [3]: 8.94 nM
IC50 [2]: 1550 nM

C#Cc1ccc(OS(=O)(=O)F)c(CNC(=O)c2cccc(NCc3nnc(-c4ccncc4)[nH]3)c2)c1
IC50 [1, 4]: 13 nM
IC50 [2]: > 7500 nM

O=C(NCc1cccnc1C(F)(F)F)c1cccc(NCc2nnc(-c3ccncn3)n2CCCN2CCC[C@H]2CO)c1
IC50 [1, 4]: 1000 nM
IC50 [2]: > 30000 nM

Cn1c(CNc2cccc(C(=O)N[C@@H]3CCOc4c(Br)cccc43)c2)nnc1-c1ccncn1
IC50 [1, 4]: 13 nM
IC50 [2]: 1630 nM

Cn1c(CNc2cccc(C(=O)N[C@H]3CCOc4c(Br)cccc43)c2)nnc1-c1ccncn1
IC50 [1, 4]: 3.6 nM
IC50 [2]: > 30000 nM

Cc1ccc2c(c1)[C@H](NC(=O)c1cccc(NCc3nnc(-c4ccncn4)n3C)c1)CCO2
IC50 [1, 4]: 4.6 nM
IC50 [2]: 196 nM

Cc1ccc2c(c1)[C@@H](NC(=O)c1cccc(NCc3nnc(-c4ccncn4)n3C)c1)CCO2
IC50 [1, 4]: 210 nM
IC50 [2]: > 30000 nM

Cn1c(CNc2cccc(C(=O)N[C@@H]3CCOc4cc(Br)ccc43)c2)nnc1-c1ccncn1
IC50 [1, 4]: 7 nM
IC50 [2]: > 30000 nM

Cn1c(CNc2cccc(C(=O)N[C@H]3CCOc4cc(Br)ccc43)c2)nnc1-c1ccncn1
IC50 [1, 4]: 11 nM
IC50 [2]: > 30000 nM

Cn1c(CNc2cccc(C(=O)N[C@@H]3CCOc4cc(Cl)ccc43)c2)nnc1-c1ccncn1
IC50 [1, 4]: 8.4 nM
IC50 [2]: 240 nM

Cn1c(CNc2cccc(C(=O)N[C@@H]3CCOc4cccnc43)c2)nnc1-c1ccncn1
IC50 [1, 4]: 7 nM
IC50 [3, 5]: 1.3 nM
IC50 [2]: 192 nM

Cn1c(CNc2cccc(C(=O)N[C@H]3CCOc4cccnc43)c2)nnc1-c1ccncn1
IC50 [1, 4]: 990 nM
IC50 [3, 5]: 144 nM
IC50 [2]: > 10100 nM

[2H]C([2H])(Nc1cccc(C(=O)NCc2ccncc2CC)c1)c1nnc(-c2ccncn2)n1C
IC50 [1, 4]: 9.4 nM
IC50 [3, 5]: 20.2 nM
IC50 [2]: > 30000 nM

Cn1c(CNc2cccc(C(=O)N[C@H](C#N)c3ccc(F)cc3F)c2)nnc1-c1ccncn1
IC50 [1, 6]: 4.9 nM
IC50 [2]: 122 nM

Cn1c(CNc2cccc(C(=O)N[C@H](C#N)c3ccccc3C(F)(F)F)c2)nnc1-c1ccncn1
IC50 [1, 6]: 3.5 nM
IC50 [2]: 54.4 nM

Cn1c(CNc2cccc(C(=O)N[C@@H](C#N)c3ccccc3F)c2)nnc1-c1ccncn1
IC50 [1, 6]: 5.5 nM
IC50 [2]: 59.3 nM

Cn1c(CNc2cccc(C(=O)N[C@H](C#N)c3ccccc3F)c2)nnc1-c1ccncn1
IC50 [1, 6]: 6.8 nM
IC50 [2]: 82.6 nM

[2H]C([2H])(Nc1cccc(C(=O)N[C@H]2CCOc3ccccc32)c1)c1nnc(-c2ccccn2)n1C
IC50 [1, 6]: 8.3 nM
IC50 [2]: 2650 nM

CCc1cnccc1CNC(=O)c1cccc(NCc2nnc(-c3ccncn3)n2[C@H]2CCC[C@H](NC)C2)c1
IC50 [1, 6]: 810 nM
IC50 ([3]; ADPGlo GRK2 enzyme assay, read-out: A: Enzymatic GRK2: IC50 (nM) (Example 8)): 529 nM

COc1ncccc1CNC(=O)c1cccc(NCc2nnc(-c3ccncc3)[nH]2)c1 [compound 9]
IC50 ([1]; 1 nM GRK2, 7 μM ATP, TR-FRET, read-out: GRK2 IC50 (nM) (Example 7)): 5.8 nM
IC50 ([3]; 7.5 nM GRK2, 10 μM ATP, ADP-Glo, read-out: GRK2 IC50 (nM) (Example 8)): 12 nM
